The values below come from paper PMC7539012, “Hyperphosphorylated tau aggregation and cytotoxicity modulators screen identified prescription drugs linked to Alzheimer's disease and cognitive functions” (Scientific Reports, 2020).

For this assay, the system named is T1, 1N4R p-tau.
T1 construct: made in house; host or cells: E. coli (PIMAX system)
The assay can be described thus: p-tau aggregation modulator screen of 1280-compound library (ThS fluorescence net change over 16 h). The assay is classed as biochemical.

Where [1] appears, read: 1280-compound library screen, ThS fluorescence net change over 16 h.
[2] abbreviates: p-tau aggregation modulator screen of the compound library, ThS fluorescence net change.
Setting [3] is: p-tau aggregation modulator screen of 1280-compound library, ThS fluorescence net change.
The mark [4] stands for this setting: library screen, ThS fluorescence net change over 16 h with p-tau.

Structures can show the parent of a compound that is named as a salt. Where two headings read alike, the source gives them in different places.

Compound `NC(N)=Nc1nc(CSCCC(N)=NS(N)(=O)=O)cs1` [Famotidine] came in with a ThS net change under setting [1] of 390.
As for `CN1[C@@H]2CC[C@H]1CC(OC1c3ccccc3CCc3ccccc31)C2.O=C(O)CC(O)(CC(=O)O)C(=O)O` (stereo partly shown) [Deptropine citrate], under setting [2], the ThS net change stood at 455.
As for `CC(=O)c1ccc(S(=O)(=O)NC(=O)NC2CCCCC2)cc1` [Acetohexamide], under setting [3], the ThS net change turned out to be 360.
Under setting [4], `CCn1cc(C(=O)O)c(=O)c2cc3c(cc21)OCO3` [Oxolinic acid] registered a ThS net change of 313.
On to `O=C(O)CN(CCN(CC(=O)O)CC(=O)O)CCN(CC(=O)O)CC(=O)O` [Pentetic acid], for which the ThS net change under setting [2] is reported as 480.
For `C#C[C@]1(O)CC[C@H]2[C@@H]3CCc4cc(OC)ccc4[C@H]3CC[C@@]21C` [Ethynylestradiol 3-methyl ether], the ThS net change under setting [1] is on record as 406.
For `OC(Cn1cncn1)(Cn1cncn1)c1ccc(F)cc1F` [Fluconazole], the ThS net change under setting [3] was found to be 374.
`C=CCN1CC[C@]23c4c5ccc(O)c4O[C@H]2C(=O)CC[C@@]3(O)[C@H]1C5` [Naloxone hydrochloride] showed a ThS net change under setting [3] of 349.
Compound `NCc1ccc(S(N)(=O)=O)cc1` [Mafenide hydrochloride] returned a ThS net change under setting [2] of 415.
Under setting [1], `CCc1ccc(CCOc2ccc(CC3SC(=O)NC3=O)cc2)nc1` (stereo not shown) [Pioglitazone] displayed a ThS net change of 410.
The same measure, in the same setting: the result for `Nc1ccc(S(=O)(=O)Nc2ccccn2)cc1` [Sulfapyridine] reads 394.
Regarding `C[C@H]1C[C@@H]2[C@H]([C@@H](O)C[C@@]3(C)[C@H]2CC[C@]3(O)C(=O)CO)[C@@]2(C)C=CC(=O)C=C12` [Methylprednisolone, 6-alpha], the ThS net change under setting [3] is listed as 340.
On to `CC(=O)c1ccc2c(c1)N(CCCN1CCC(CCO)CC1)c1ccccc1S2` [Piperacetazine], for which the ThS net change under setting [4] was found to be 243.
Under setting [1], `CCCCNc1cc(C(=O)O)cc(S(N)(=O)=O)c1Oc1ccccc1` [Bumetanide] had a ThS net change of 408.
For `Nc1ccc(S(=O)(=O)Nc2nccs2)cc1` [Sulfathiazole], the ThS net change under setting [1] is 389.
The same measure, in the same setting: the result for `O=C1CCc2ccc(OCCCCN3CCN(c4cccc(Cl)c4Cl)CC3)cc2N1` [Aripiprazole] reads 386.
Under setting [2], `CCCc1nc(C)c2c(=O)[nH]c(-c3cc(S(=O)(=O)N4CCN(CC)CC4)ccc3OCC)nn12` [Vardenafil] gave a ThS net change of 414.
In turn, `NC1CCN(c2c(F)cc3c(=O)c(C(=O)O)cn(C4CC4)c3c2Cl)C1` (stereo not shown) [Clinafloxacin] showed a ThS net change under setting [2] of 433.
Under setting [1], `Nc1nc(=O)c2nc(CNc3ccc(C(=O)N[C@@H](CCC(=O)O)C(=O)O)cc3)cnc2[nH]1` [Folic acid] had a ThS net change of 398.
With `COc1cccc(N(C)C(=S)Oc2ccc3c(c2)CCCC3)n1` [Liranaftate], the ThS net change is given as 435.
For `COc1ccc(C[C@@H]2c3cc(OC)c(OC)cc3CC[N@+]2(C)CCC(=O)OCCCCCOC(=O)CC[N@@+]2(C)CCc3cc(OC)c(OC)cc3[C@H]2Cc2ccc(OC)c(OC)c2)cc1OC` [Cisatracurium besylate], the ThS net change under setting [2] is 458.
Under setting [2], `CC(=O)OCC1=C(C(=O)O)N2C(=O)[C@@H](NC(=O)Cc3cccs3)[C@H]2SC1` [Cephalothin sodium salt] had a ThS net change of 446.
Take `COP(=O)(OC)C(O)C(Cl)(Cl)Cl` (stereo not shown) [Trichlorfon]: the ThS net change (p-tau aggregation modulator screen of 1280-compound library, […]) came out at 340.
The compound `O=C(O)c1cn(-c2ccc(F)cc2)c2cc(N3CCNCC3)c(F)cc2c1=O` [Sarafloxacin] displayed a ThS net change under setting [3] of 332.
Consider `CCN(CC)CC(=O)Nc1c(C)cccc1C` [Lidocaine hydrochloride], for which the ThS net change came to 271.
Regarding `CC[C@H](C)C(=O)O[C@H]1CCC=C2C=C[C@H](C)[C@H](CC[C@@H]3C[C@@H](O)CC(=O)O3)[C@H]21` [Mevastatin], the ThS net change under setting [2] came out at 497.
`N=C(N)NCC1COC2(CCCCC2)O1.N=C(N)NCC1COC2(CCCCC2)O1.O=S(=O)(O)O` (stereo not shown) [Guanadrel sulfate] returned a ThS net change under setting [3] of 373.
Turning to `C#C[C@]1(OC(C)=O)CC[C@H]2[C@@H]3CCC4=CC(=NO)CC[C@@H]4[C@H]3CC[C@@]21CC` (mixture of isomers) [Norgestimate], under setting [2], the ThS net change is listed as 486.
`c1ccc2c(c1)OCC(C1=NCCN1)O2` (stereo not shown) [Idazoxan hydrochloride] came in with a ThS net change under setting [1] of 386.
In turn, `CCCCC(CC)CNC(=N)NC(=N)NCCCCCCNC(=N)NC(=N)NCC(CC)CCCC` (stereo not shown) [Alexidine dihydrochloride] gave a ThS net change under setting [4] of 327.
Same read-out and setting: the result for `CCC(NC(C)C)C(O)c1ccc(O)c(O)c1.CS(=O)(=O)O` (stereo not shown) [Isoetharine mesylate salt] reads 313.
On to `Cc1cccc(Nc2ccccc2C(=O)O)c1C` [Mefenamic acid], for which the ThS net change under setting [3] was determined as 353.
On to `CC/C(=C(\c1ccccc1)c1ccc(OCCN(C)C)cc1)c1ccccc1` [tamoxifen, reference compound], for which the “effect on p-tau aggregation in pilot screen” value (30 µM compound, 6 µM p-tau, 16 h) is “none of them affected p-tau aggregation”.
Compound `CCCNC(C)C(=O)Nc1c(C)csc1C(=O)OC` (stereo not shown) [Articaine hydrochloride] showed a ThS net change under setting [2] of 450.
Under setting [3], `C[N+]1(CCCCC[N+]2(C)CCCC2)CCCC1.O=C([O-])C(O)C(O)C(=O)O.O=C([O-])C(O)C(O)C(=O)O` [Pentolinium bitartrate] had a ThS net change of 369.
On the same count and under the same terms, the result for `CN/C(=N/CCSCc1nc[nH]c1C)NC#N` [Cimetidine] reads 356.
As for `C[C@@H]1[C@H](O)[C@@H](C)/C=C/C=C/C=C/C=C/C=C/C=C/C=C/[C@H](O[C@@H]2O[C@H](C)[C@@H](O)[C@H](N)[C@@H]2O)C[C@@H]2O[C@](O)(C[C@@H](O)C[C@@H](O)[C@H](O)CC[C@@H](O)C[C@@H](O)CC(=O)O[C@H]1C)C[C@H](O)[C@H]2C(=O)O` [Amphotericin B], the ThS net change under setting [1] worked out at 396.
